In patent US11285132B2, “Uses of indolinone compounds” (Oncternal Therapeutics, Inc., priority 2016, dated 2022):

Experiments:
Type in all cases: cell-based
[1] = test system: ML-2; test: 72 hr CellTiter-Glo, AML cell line; details: Homo sapiens
[2] = test system: TMD-8; test: 72 hr CellTiter-Glo, DLBCL cell line; details: Homo sapiens, TMD8
[3] = test system: OCI-LY-10; test: Combination with other agents, MTT, Chou-Talalay combination index
Excerpt: Y-axis: CI values. In each box-plot, the line in the middle of the box represents the median and the box extends from the 25th to the 75th percentile (interquartile range, IQ); the whiskers extend to the upper and lower adjacent values (i.e., ±1.5 IQ); outside values have been omitted from the figure. CIs for TK-216/rituximab in TMD8, TK-216/rituximab in Karpas422, TK-216/rituximab in OCI-LY-10 are not plotted due to CI values >3. Combinations tested included bendamustine, bortezomib, ibrutinib, idelalisib, lenalidomide, OTX015 (birabresib, CAS No. 202590-98-5), PQR309 (bimiralisib, CAS No. 1225037-39-7 (free base)), selinexor, venetoclax, and vincristine.
Cell lines were exposed to YK-4-279 or TK-216, alone or in combination with other compounds, for 72 h using a Tecan D300e Digital Dispenser and 96 well plates. Cell proliferation was measured with MTT. Synergy was determined with the Chou-Talalay combination index. Gene expression profiling (GEP) was performed with the Illumina HumanHT 12 Expression BeadChips. In vivo studies were done in NOD-SCID mice and treatments started with 60 mm3 tumor volumes sc.

[4] = test system: HL-60; test: 72 hr CellTiter-Glo, AML cell line; details: Homo sapiens
[5] = molecular target: T1, EWS-FLI1 (Homo sapiens, UniProt Q01543+Q01844); test: EWS-FLI1 / NROB1 reporter-luciferase transcription in COS7 cells; details: COS7 cells transfected with a EWS-FLI1 responsive promoter; read-out: EC50, transcriptional decrease
T1 construct: EWS (part of EWSR1, Q01844); expressed in transfected cells; host or cells: COS7
T1 sequence (Q01543 220-452 limits assumed, one chain of several): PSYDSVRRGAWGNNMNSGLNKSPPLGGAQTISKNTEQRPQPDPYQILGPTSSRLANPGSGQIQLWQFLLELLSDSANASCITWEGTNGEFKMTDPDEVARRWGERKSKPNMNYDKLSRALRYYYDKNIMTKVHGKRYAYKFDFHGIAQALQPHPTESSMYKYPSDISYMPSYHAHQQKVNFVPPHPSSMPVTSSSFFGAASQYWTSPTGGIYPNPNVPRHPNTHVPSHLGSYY
Excerpt: TK216 is a first in class, small molecule that directly binds EWS-FLI1 inhibiting the biological activity of ETS-family transcription factor oncoproteins and is currently under clinical investigation in patients with Ewing sarcoma.
TK216 reduced transcriptional activity in COS7 cells co-transfected with EWS-FLI1 and NROB1 reporter-luciferase plasmids which contain EWS-FLI1 DNA-binding sites, as shown in FIG. 3.

[6] = test system: DOHH2; test: 72 hr CellTiter-Glo, DLBCL cell line; details: Homo sapiens, DOHH-2
[7] = test system: Kasumi-1; test: 72 hr CellTiter-Glo, AML cell line; details: Homo sapiens
[8] = test system: myeloid cell lines (HL-60, Kasumi-1, ML-2, MOLM-13, MOLM-16, and THP-1); test: Viability and apoptosis in myeloid cell lines
Excerpt: TK216 also had anti-proliferative effects, causes cell cycle arrest, and induces apoptosis in a panel of AML and DLBCL cell lines with deregulated ETS family members. […] In vivo efficacy studies in xenograft models of DLBCL indicated anti-tumor activity consistent with in vitro findings, confirming the utility and efficacy of TK216 in the treatment of AML and DLBCL by targeting the aberrant expression and translocations in the ETS-family of transcription factors, which contribute to the pathogenesis of the disease.

[9] = test system: DLBCL cell lines; test: Median-effect combination analysis (CalcuSyn, Chou/Talalay CI)
Excerpt: The median-effect analysis was used to determine synergism, antagonism, or additivity of TK216 when combined with ABT199 (BCL-2i) and ACP196 (BTKi).
The inhibition of the EWS-FLI1 oncogene offers a promising approach for the treatment of Ewing Sarcoma, e.g., relapsed/refractory Ewing Sarcoma.

[10] = test system: MOLM-13; test: 72 hr CellTiter-Glo, AML cell line; details: Homo sapiens
[11] = test system: IRF7; test: Protein levels in cells; details: similarly to lenalidomide
Excerpt: (§1) With the aim to understand the mechanism of action of YK-4-279 and TK-216, the baseline RNA expression levels of the different ETS factors were correlated with sensitivity to the drugs. SPIB was the gene presenting the most significant negative correlation with both YK-4-279 and TK-216, especially among the ABC DLBCL cell lines (P<0.05). SPIB is a known oncogene for ABC DLBCL (Lenz et al, PNAS 2008) and is involved in the response to lenalidomide in ABC DLBCL (Yang et al, Cancer Cell 2012). YK-4-279 inhibits the binding of EWS1-FLI1 to the helicases RHA and DDX5 (Selvanathan et al, PNAS 2012). Thus, it was assessed whether YK-4-279 and TK-216 can have a similar effect on SPIB and whether they induce cellular effects similar to lenalidomide. […] In ABC DLBCL, the ETS inhibitor YK-4-279 and its clinical derivative TK-216 interfere with SPIB and helicases involved in RNA editing. Moreover, both compounds act similarly to lenalidomide inhibiting IRF4 and upregulating IRF7 and synergize with the IMID in both ABC DLBCL and MCL.

[12] = test system: IRF4; test: Protein levels in cells; details: similarly to lenalidomide
Excerpt: as §1

[13] = test system: DLBCL cell lines; test: Apoptosis by cleaved-Caspase 3 detection; details: various concentrations, 18 h
Procedure: Cells were treated with various concentrations of TK216 for 18 h and apoptosis was assessed by detection of cleaved-Caspase 3.

[14] = test system: 56 lymphoma cell lines; test: MTT proliferation, 56 lymphoma cell lines, 72 h; details: 95% C.I.: 367-506, read-out: median IC50
Procedure: 56 lymphoma cell lines [27 diffuse large B cell lymphoma (DLBCL); 10 mantle cell lymphoma; 6 marginal zone lymphoma; 5 anaplastic large T-cell lymphoma; 8 others] were exposed to TK-216 increasing doses for 72 h using a Tecan D300e Digital Dispenser and 384 well plates. Cell proliferation was measured with MTT. In vivo study was done in NOD-SCID mice; treatments were started with approximately sc 60 mm3 tumor volumes. Sensitivity was not affected by the lymphoma cell of origin (B vs T; activated B cell type DLBCL versus germinal center type DLBCL) or MYC and TP53 status. There was a non-statistically significant trend for lower sensitivity in cell lines bearing BCL2 chromosomal translocation (P=0.07, DLBCL only; P=0.06, all cell lines).

[15] = test system: U2932; test: 72 hr CellTiter-Glo, DLBCL cell line; details: Homo sapiens
[16] = test system: WSU-DLCL2; test: 72 hr CellTiter-Glo, DLBCL cell line; details: Homo sapiens, WSUDLCL2

For `O=C(CC1(O)C(=O)Nc2c(Cl)ccc(Cl)c21)c1ccc(C2CC2)cc1` (stereo not shown) [TK216, 4,7-Dichloro-3-(2-(4-cyclopropylphenyl)-2-oxoethyl)-3-hydroxyindolin-2-one], the IC50 [1] was 291 nM, the IC50 [2] was 152 nM and the “effect of TK216 in combination with OTX015” value ([3]; with OTX015) was “additive effect”. For the same molecule, the “effect of TK216 in combination with PQR309” value ([3]; with PQR309) was “No benefit effects”, the “effect of TK216 in combination with bendamustine” value ([3]; with bendamustine) was “No benefit effects” and the “effect of TK216 in combination with bortezomib” value ([3]; with bortezomib) was “No benefit effects”. The “effect of TK216 in combination with ibrutinib” value ([3]; with ibrutinib) was “additive effect”, the “effect of TK216 in combination with idelalisib” value ([3]; with idelalisib) was “Synergism” and the “effect of TK216 in combination with lenalidomide” value ([3]; with lenalidomide) was “Synergism”. For the same molecule, the “CI values, TK-216/rituximab” value ([3]; with rituximab, not plotted) was > 3, the “effect of TK216 in combination with selinexor” value ([3]; with selinexor) was “No benefit effects” and the “effect of TK216 in combination with venetoclax” value ([3]; with venetoclax) was “Synergism”. For the same molecule, the “effect of TK216 in combination with vincristine” value ([3]; with vincristine) was “additive effect”, the IC50 [4] was 363 nM and the EC50 [5] was < 100 nM. For the same molecule, the IC50 [6] was 160 nM, the IC50 [7] was 393 nM and the cellular viability [8] was “decrease in cellular viability”. For the same molecule, the apoptosis of cells ([8]; 48 hours) was “induced dose-dependent apoptosis”, the “combination effect with ABT199 (BCL-2i), Combination Index” value ([9]; combined with ABT199) was “synergy” and the “combination effect with ACP196 (BTKi), Combination Index” value ([9]; combined with ACP196) was “synergy”. For the same molecule, the IC50 [10] was 228 nM, the “IRF7 protein in cells” value [11] was “upregulated IRF7” and the “IRF4 protein in cells” value [12] was “decreased IRF4”. For the same molecule, the “apoptosis (cleaved-Caspase 3)” value [13] was “induced apoptosis”, the IC50 [14] was 449 nM and the IC50 [15] was 127 nM. For the same molecule, the IC50 [16] was 897 nM.
